{"source": "ChEMBL document CHEMBL1140623", "about": "“CC chemokine receptor-3 (CCR3) antagonists: improving the selectivity of DPC168 by reducing central ring lipophilicity” (Bioorg Med Chem Lett, 2007)", "key": {"in vivo [1]": {"assay": "in vivo", "conditions": "BALB/c, mouse"}, "in vivo [2]": {"assay": "in vivo", "conditions": "chimpanzee"}, "in vitro [3]": {"assay": "in vitro", "conditions": "human, Caco-2"}, "in vivo [4]": {"assay": "in vivo", "conditions": "cynomolgus monkey"}, "in vivo [5]": {"assay": "in vivo", "conditions": "cynomolgus monkey", "remark": "listed apart in the source"}, "in vivo [6]": {"assay": "in vivo", "conditions": "BALB/c, mouse", "remark": "listed apart in the source"}, "in vivo [7]": {"assay": "in vivo", "conditions": "chimpanzee", "remark": "listed apart in the source"}, "in vivo [8]": {"assay": "in vivo", "conditions": "BALB/c, mouse", "remark": "listed apart in the source"}, "in vivo [9]": {"assay": "in vivo", "conditions": "cynomolgus monkey", "remark": "listed apart in the source"}, "in vitro [10]": {"assay": "in vitro", "conditions": "human, liver microsomes"}, "in vivo [11]": {"assay": "in vivo", "conditions": "chimpanzee", "remark": "listed apart in the source"}}, "data": [{"smiles": "CC(=O)c1sc(NC(=O)N[C@@H]2CN(C(C)=O)CC[C@H]2CN2CCC[C@@H](Cc3ccc(F)cc3)C2)nc1C", "values": [{"measurement": "bioavailability", "setting": "in vivo [1]", "result": 25, "unit": "%"}, {"measurement": "clearance", "setting": "in vivo [2]", "result": 21.7, "unit": "mL/min/kg"}, {"measurement": "Papp", "setting": "in vitro [3]", "result": 2.8, "unit": "×10⁻⁶ cm/s"}, {"measurement": "clearance", "setting": "in vivo [4]", "result": 14.5, "unit": "mL/min/kg"}, {"measurement": "half-life", "setting": "in vivo [5]", "result": 5.5, "unit": "h"}, {"measurement": "half-life", "setting": "in vivo [6]", "result": 1.2, "unit": "h"}, {"measurement": "half-life", "setting": "in vivo [7]", "result": 4.5, "unit": "h"}, {"measurement": "clearance", "setting": "in vivo [8]", "result": 41.7, "unit": "mL/min/kg"}, {"measurement": "bioavailability", "setting": "in vivo [9]", "result": 18, "unit": "%"}, {"measurement": "CLint scaled", "setting": "in vitro [10]", "result": 16, "unit": "mL/min/kg"}, {"measurement": "bioavailability", "setting": "in vivo [11]", "result": 7, "unit": "%"}]}]}
